pIC50: −log10 of the molar value. Where two headings read alike, the source gives them in different places.
Columns and labels:
Cathepsin D (Cat D) = Cathepsin D (Cat D) (Homo sapiens (Human), UniProt P07339); experiment: In vitro enzymatic Cathepsin D (Cat D) FRET assay; type: biochemical; details: read-out: CatD IC50
Outline: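 CHO-expressed recombinant Cat D cleaves a fluorophore/quencher FRET peptide (20 nM) in 0.05 M citrate pH 3.5, 5 mM CHAPS, 10% DMSO final, over 1 h. Tris addition neutralizes pH to stop the reaction; fluorescence read at excitation 500 nm, emission 580 nm.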

[1] = target: Beta Secretase enzyme (BACE) (Homo sapiens (Human), UniProt P56817); experiment: In vitro enzymatic BACE FRET assay; type: biochemical; details: read-out: BACE 1 FRET assay IC50
Chain of Beta Secretase enzyme (BACE) (P56817 46-501): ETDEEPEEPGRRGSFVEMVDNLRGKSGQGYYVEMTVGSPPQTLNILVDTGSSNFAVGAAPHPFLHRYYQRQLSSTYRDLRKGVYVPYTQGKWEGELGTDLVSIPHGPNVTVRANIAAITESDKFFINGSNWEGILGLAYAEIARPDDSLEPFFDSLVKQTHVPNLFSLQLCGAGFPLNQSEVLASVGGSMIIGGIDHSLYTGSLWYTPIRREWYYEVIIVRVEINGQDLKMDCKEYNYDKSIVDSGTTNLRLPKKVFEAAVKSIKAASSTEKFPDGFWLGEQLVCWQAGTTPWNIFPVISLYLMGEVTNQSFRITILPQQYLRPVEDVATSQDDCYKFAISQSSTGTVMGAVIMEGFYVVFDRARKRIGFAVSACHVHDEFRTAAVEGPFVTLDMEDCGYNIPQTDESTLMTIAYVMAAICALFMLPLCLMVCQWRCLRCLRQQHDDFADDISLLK
Outline: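 A quenched fluorophore-peptide spanning the BACE cleavage site served as substrate at 50 nM, with one-hour incubation in pH 4.2 acetate buffer containing 100 uM genapol and 10% DMSO final. Fluorescence was measured after quenching with Tris to neutral pH.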

[2] = system: Aβ40 in conditioned medium of cells stably expressing Amyloid Precursor Protein (APP); experiment: In vitro BACE cell-based assay (Aβ40 sandwich ELISA); details: Homo sapiens
Outline: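 Aβ40 in supernatants was measured by time-resolved fluorescence sandwich ELISA using pAb40 capture and biotinylated 6E10 detection, with antibody incubations at 4 °C. Stable APP cells were exposed to compounds for 24 h in a 10-point series (top dose 100 or 10 µM, 0.1% DMSO). IC50 was fitted from the concentration-response.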

[3] = HEK293, average IC50, HEK cells, read-out: HEK cell assay IC50
[4] = average IC50, cathepsin D enzyme assay
[5] = average IC50, BACE enzyme assay
[6] = HEK293, average IC50, HEK cell assay, read-out: HEK cell assay IC50
[7] = HEK293, HEK cells, average, read-out: HEK cell assay IC50
[8] = HEK293, read-out: HEK cell assay IC50

Chain of Cathepsin D (Cat D) (P07339 65-412, species assumed): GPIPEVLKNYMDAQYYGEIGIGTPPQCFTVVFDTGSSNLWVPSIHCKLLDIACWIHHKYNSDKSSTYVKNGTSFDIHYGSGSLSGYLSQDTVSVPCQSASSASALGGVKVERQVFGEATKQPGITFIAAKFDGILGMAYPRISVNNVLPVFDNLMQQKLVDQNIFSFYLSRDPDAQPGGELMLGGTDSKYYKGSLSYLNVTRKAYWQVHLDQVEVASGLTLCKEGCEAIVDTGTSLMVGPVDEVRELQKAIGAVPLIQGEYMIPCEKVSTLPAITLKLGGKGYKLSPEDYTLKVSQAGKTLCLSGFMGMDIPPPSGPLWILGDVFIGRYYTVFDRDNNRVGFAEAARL

NC1=N[C@](CF)(c2cc(N)cnc2F)C[C@@H](C(F)(F)F)O1 [Example 138, (4S,6S)-4-(5-amino-2-fluoropyridin-3-yl)-4-(fluoromethyl)-6-(trifluoromethyl)-5,6-dihydro-4H-1,3-oxazin-2-amine]
pIC50 (Cathepsin D (Cat D); average IC50): < 3.40
pIC50 ([1]; average IC50): < 4.40
pIC50 [2, 3]: < 4.81

NC1=N[C@](CF)(c2cc(Nc3cc(-c4ccccc4)ccn3)ccc2F)C[C@@H](C(F)(F)F)O1 [Example 115, (4S,6S)-4-(2-fluoro-5-((4-phenylpyridin-2-yl)amino)phenyl)-4-(fluoromethyl)-6-(trifluoromethyl)-5,6-dihydro-4H-1,3-oxazin-2-amine]
pIC50 (Cathepsin D (Cat D); [4]): 3.50
pIC50 [1, 5]: 5.10
pIC50 [2, 6]: 5.50

CNC(=O)c1ccnc(C#Cc2ccc(F)c([C@]3(CF)C[C@@H](C(F)(F)F)OC(N)=N3)c2)c1 [Example 129, 2-((3-((4S,6S)-2-amino-4-(fluoromethyl)-6-(trifluoromethyl)-5,6-dihydro-4H-1,3-oxazin-4-yl)-4-fluorophenyl)ethynyl)-N-methylisonicotinamide]
pIC50 (Cathepsin D (Cat D); average): < 3.40
pIC50 ([1]; average): < 4.40
pIC50 [2, 7]: < 4.81

NC1=N[C@](CF)(c2cc(NC(=O)c3ccc(C(F)F)cn3)ccc2F)C[C@@H](C(F)(F)F)O1 [Example 41, N-(3-((4S,6S)-2-amino-4-(fluoromethyl)-6-(trifluoromethyl)-5,6-dihydro-4H-1,3-oxazin-4-yl)-4-fluorophenyl)-5-(difluoromethyl)picolinamide]
pIC50 (Cathepsin D (Cat D); [4]): < 3.40
pIC50 [1, 5]: 7.14
pIC50 [2, 6]: 7.06

Cc1cc(C#N)cnc1C(=O)Nc1cc(C)c(F)c([C@]2(CF)C[C@@H](C(F)(F)F)OC(N)=N2)c1 [Example 219, N-(3-((4S,6S)-2-amino-4-(fluoromethyl)-6-(trifluoromethyl)-5,6-dihydro-4H-1,3-oxazin-4-yl)-4-fluoro-5-methylphenyl)-5-cyano-3-methylpicolinamide]
pIC50 (Cathepsin D (Cat D); average): < 3.40
pIC50 ([1]; average): 7.70
pIC50 [2, 7]: 7.96

C[C@@]1(c2cc(NC(=O)c3ncc(Br)cc3Cl)cc(F)c2F)C[C@@H](C(F)(F)F)OC(N)=N1 [Example 240, N-(3-((4S,6S)-2-amino-4-methyl-6-(trifluoromethyl)-5,6-dihydro-4H-1,3-oxazin-4-yl)-4,5-difluorophenyl)-5-bromo-3-chloropicolinamide]
pIC50 (Cathepsin D (Cat D); average): 3.03
pIC50 ([1]; average): 7.70
pIC50 [2, 8]: 7.66

C[C@@]1(c2cc(Nc3nccc4cc(Cl)cnc34)cnc2F)C[C@@H](C(F)(F)F)OC(N)=N1 [Example 76, (4S,6S)-4-(5-((3-chloro-1,7-naphthyridin-8-yl)amino)-2-fluoropyridin-3-yl)-4-methyl-6-(trifluoromethyl)-5,6-dihydro-4H-1,3-oxazin-2-amine]
pIC50 (Cathepsin D (Cat D); average IC50): < 3.40
pIC50 ([1]; average IC50): 7.48
pIC50 [2, 3]: 7.38

Cc1cc(Cl)cnc1C(=O)Nc1ccc(F)c([C@]2(CF)C[C@@H](C(F)(F)F)OC(N)=N2)c1 [Example 4, N-(3-((4S,6S)-2-amino-4-(fluoromethyl)-6-(trifluoromethyl)-5,6-dihydro-4H-1,3-oxazin-4-yl)-4-fluorophenyl)-5-chloro-3-methylpicolinamide]
pIC50 (Cathepsin D (Cat D); average IC50): < 3.40
pIC50 ([1]; average IC50): 8.10
pIC50 [2, 8]: 7.51

COc1cc(C#N)cnc1C(=O)Nc1cc(F)c(F)c([C@]2(C)C[C@@H](C(F)(F)F)OC(N)=N2)c1 [Example 168, N-(3-((4S,6S)-2-amino-4-methyl-6-(trifluoromethyl)-5,6-dihydro-4H-1,3-oxazin-4-yl)-4,5-difluorophenyl)-5-cyano-3-methoxypicolinamide]
pIC50 (Cathepsin D (Cat D); [4]): < 3.40
pIC50 [1, 5]: 7.29
pIC50 [2, 8]: 8.21

NC1=N[C@](CF)(c2cccc(Nc3nccc4cc(Cl)cnc34)c2)C[C@@H](C(F)(F)F)O1 [Example 146, (4S,6S)-4-(3-((3-chloro-1,7-naphthyridin-8-yl)amino)phenyl)-4-(fluoromethyl)-6-(trifluoromethyl)-5,6-dihydro-4H-1,3-oxazin-2-amine]
pIC50 (Cathepsin D (Cat D); average IC50): 3.13
pIC50 ([1]; average IC50): 7.17
pIC50 [2, 3]: 6.92

COC1CCN(C(=O)Nc2ccc(F)c([C@]3(C)C[C@@H](C(F)(F)F)OC(N)=N3)c2)CC1 [Example 119, N-(3-((4S,6S)-2-amino-4-methyl-6-(trifluoromethyl)-5,6-dihydro-4H-1,3-oxazin-4-yl)-4-fluorophenyl)-4-methoxypiperidine-1-carboxamide]
pIC50 (Cathepsin D (Cat D); [4]): < 3.40
pIC50 [1, 5]: 4.25
pIC50 [2, 6]: 5.68

C#CCOc1ccc(C(=O)Nc2ccc(F)c([C@]3(C)C[C@@H](C(F)(F)F)OC(N)=N3)c2)nc1 [Example 28, N-(3-((4S,6S)-2-amino-4-methyl-6-(trifluoromethyl)-5,6-dihydro-4H-1,3-oxazin-4-yl)-4-fluorophenyl)-5-(prop-2-yn-1-yloxy)picolinamide]
pIC50 (Cathepsin D (Cat D); [4]): 3.18
pIC50 [1, 5]: 7.75
pIC50 [2, 6]: 8.03

NC1=N[C@](CF)(c2cc(C#Cc3ccc(OC4CCC4)cn3)ccc2F)C[C@@H](C(F)(F)F)O1 [Example 128, (4S,6S)-4-(5-((5-cyclobutoxypyridin-2-yl)ethynyl)-2-fluorophenyl)-4-(fluoromethyl)-6-(trifluoromethyl)-5,6-dihydro-4H-1,3-oxazin-2-amine]
pIC50 (Cathepsin D (Cat D); average): 2.97
pIC50 ([1]; average): 4.69
pIC50 [2, 7]: 5.22

NC1=N[C@](CF)(c2cc(Oc3cccc(Cl)n3)ccc2F)C[C@@H](C(F)(F)F)O1 [Example 100, (4S,6S)-4-(5-((6-chloropyridin-2-yl)oxy)-2-fluorophenyl)-4-(fluoromethyl)-6-(trifluoromethyl)-5,6-dihydro-4H-1,3-oxazin-2-amine]
pIC50 (Cathepsin D (Cat D); [4]): 2.71
pIC50 [1, 5]: 5.80
pIC50 [2, 6]: 5.49

C[C@@]1(c2cc(NC(=O)c3cnc(C(F)F)cn3)cc(Cl)c2F)C[C@@H](C(F)(F)F)OC(N)=N1 [Example 211, N-(3-((4S,6S)-2-amino-4-methyl-6-(trifluoromethyl)-5,6-dihydro-4H-1,3-oxazin-4-yl)-5-chloro-4-fluorophenyl)-5-(difluoromethyl)pyrazine-2-carboxamide]
pIC50 (Cathepsin D (Cat D); average): 3.22
pIC50 ([1]; average): 7.21
pIC50 [2, 8]: 7.33

NC1=N[C@](CF)(c2cc(Nc3ncc(F)c4cc(C#CC5CC5)cnc34)ccc2F)C[C@@H](C(F)(F)F)O1 [Example 54, (4S,6S)-4-(5-((3-(cyclopropylethynyl)-5-fluoro-1,7-naphthyridin-8-yl)amino)-2-fluorophenyl)-4-(fluoromethyl)-6-(trifluoromethyl)-5,6-dihydro-4H-1,3-oxazin-2-amine]
pIC50 (Cathepsin D (Cat D); [4]): < 3.88
pIC50 [1, 5]: 7.48
pIC50 [2, 6]: 5.63

CC(C)n1cc(Cl)c(C(=O)Nc2cnc(F)c([C@]3(C)C[C@@H](C(F)(F)F)OC(N)=N3)c2)n1 [Example 71, N-(5-((4S,6S)-2-amino-4-methyl-6-(trifluoromethyl)-5,6-dihydro-4H-1,3-oxazin-4-yl)-6-fluoropyridin-3-yl)-4-chloro-1-isopropyl-1H-pyrazole-3-carboxamide]
pIC50 (Cathepsin D (Cat D); [4]): < 3.40
pIC50 [1, 5]: 4.41
pIC50 [2, 6]: 5.29

C[C@@]1(c2cc(NC(=O)c3ccc(Cl)cn3)ccc2F)C[C@@H](C(F)(F)F)OC(N)=N1 [Example 26, N-(3-((4S,6S)-2-amino-4-methyl-6-(trifluoromethyl)-5,6-dihydro-4H-1,3-oxazin-4-yl)-4-fluorophenyl)-5-chloropicolinamide]
pIC50 (Cathepsin D (Cat D); average IC50): < 3.40
pIC50 ([1]; average IC50): 7.91
pIC50 [2, 3]: 8.31

— patent US9296734B2 (AMGEN INC., priority 2013, dated 2016)
